Source: patent US20250090480A1, “UNIQUE ANALOGS OF NATURAL LIGNANS USEFUL FOR TREATING TRIPLE NEGATIVE BREAST CANCER” (University of Kentucky Research Foundation, priority 2023, published 2025)

Key:
[1] = tested on: TNBC cells, including MDA-MB-231 and MDA-MB-468 cells; conditions: 24 h; read-out: activity of machilin D (comparison value); cited from earlier work
[2] = tested on: SUM159; assay: Colony formation assay in SUM159; type: cell-based; conditions: SUM159, half and full IC50 concentrations, 6 days
Protocol: The ability of compounds 1, 7A, and 7B to prevent colony formation was assessed in SUM159, a Triple Negative Breast Cancer cell line. Cells were grown to 80% confluency in T75 flasks in DMEM supplemented with 10% FBS, 1% amphotericin, 1% penicillin/streptomycin, and 5 μg/mL insulin. Media was discarded and trypsin added for 5 minutes to detach cells. Media was added to neutralize the trypsin and mixture was transferred to centrifuge tube. After centrifugation at 2000 RPM for 5 minutes, the pellet was washed with PBS and resuspended in 2 mL of above media. Cell density was assessed via hemocytometer and solution diluted to 2,000 cells/mL. Cells were plated in 6-well clear bottom plates at 2,000 cells/well. Treatment conditions included control (0.5% DMSO), and compounds 1, 7A, and 7B at both half and full IC5. concentrations, All treatments were plated in triplicate for a total of 21 wells used. Plates were placed in the incubator at 37° C. and 5-10% CO2 for six days. […]
(§1) To further characterize the improved bioactivity of compounds 7A and 7B to compound 1, colonogenic and mammmosphere formation assays were performed in TNBC cell line SUM159 at full and half IC50 values (FIG. 7A-7B). […] Using colony formation assay, we evaluated the antiproliferative effects of 7A in SUM159 cells. […]

[3] = tested on: TNBC cell lines MDA-MB-231, MDA-MB-468, SUM159; assay: MTT cell viability assay, 24 h exposure, three TNBC cell lines; type: cell-based
Protocol: Cell Viability Assay for Compounds 1-8: The cytotoxicity for compounds 1-8 was assessed in three Triple Negative Breast Cancer cell lines: MDA-MB-231, MDA-MB-468, an SUM159. Cells were grown to 80% confluency in T75 flasks. Media was discarded and trypsin added for 5 minutes to detach cells. Media was added to neutralize the trypsin and mixture was transferred to centrifuge tube. After centrifugation at 2000 RPM for 5 minutes, the pellet was washed with PBS and resuspended in 2 mL appropriate media. Cell density was assessed via hemocytometer and solution diluted to 40,000 cells/mL. A 96-well clear bottom plate was prepared by adding media to rows 1 and 8 and columns 1, 2, 11, and 12 to prevent evaporation from impacting sample wells. Cells were plated in the inner wells with 100 μL per well (4,000 cells/well). Plates were placed in the incubator at 37° C. and 5-10% CO2 overnight to allow cells to acclimate and adhere.
Compounds 1-8 were prepared as 80 mM stock solutions in DMSO. The stock was diluted 20 μL to 4 mL with the appropriate media to yield a new stock concentration of 400 μM and DMSO concentration of 0.5% v/v. This stock was used for six serial dilutions (1/2×) to obtain a range of concentrations from 6.25 to 400 μM. […]
Plates were removed from the incubator and treatment solutions removed. […] Plates were then read on a Biotek Synergy H1 Plate Reader at 570 nm (peak absorbance). […]

[4] = tested on: SUM159 mammosphere; assay: Mammosphere formation assay in SUM159; type: cell-based; conditions: SUM159, half or full IC50 concentration, 6 days
Protocol: The ability of Compounds 1, 7A, and 7B to prevent mammosphere formation was assessed in SUM159, a Triple Negative Breast Cancer cell line. Cells were grown to 80% confluency in T75 flasks in DMEM supplemented with 10% FBS, 1% amphotericin, 1% penicillin/streptomycin, and 5 μg/mL insulin, Media was discarded and trypsin added for 5 minutes to detach cells. Media was added to neutralize the trypsin and mixture was transferred to centrifuge tube. After centrifugation at 2000 RPM for 5 minutes, the pellet was washed with PBS and resuspended in 2 mL mammosphere media. Mammosphere media consists of MammoCult Human Medium (StemCell Technologies) supplemented with Heparin ([…], StermCellTechnologies) and Hydrocortisone (0.48 μg/ml, StemCell Technologies). Cell density was assessed via hemocytometer and solution diluted to 8,000 cells/mL in mammosphere media. A 24-well ultra-low-attachment clear bottom plate was prepared. Cells were plated in all wells with 500 μL per well (4,000 cells/well). […]
as §1

## C/C=C/c1ccc(O[C@@H](C)[C@@H](O)c2ccc(O)c(OC)c2)c(OC)c1 [machilin D]
[1]
  IC50: ~100 µM

## C/C=C/c1ccc(O[C@@H](C)[C@@H](OCC(C)C)c2ccc(O)c(OC)c2)c(OC)c1 (racemic) [Compound 7A]
[2]
  colony formation: colony formation was inhibited
[3]; MTT, all three TNBC cell lines
  cytotoxicity (IC50) comparison of diastereomers: significantly improved cytotoxicity values over 7B
[4]
  mammosphere growth: effective inhibition

## machilin C/D [Compound 1]
[2]
  colony formation: slow colony formation
[3]; 24 h exposure, range across MDA-MB-468, MDA-MB-231, SUM159, diastereomeric mixture
  IC50: 167 to 180 µM
[4]
  mammosphere growth: slow colony formation and mammosphere growth
